This is an account of results in patent US20260373038A1, “A PERSONAL CARE COMPOSITION” (Conopco, Inc., d/b/a UNILEVER, priority 2022, published 2026).

This series concerns collagen type I alpha I chain (COL1A1) gene, normal human dermal fibroblasts (NHDF). The series is described as follows: Fold change in gene expression of COL1A1 in normal human dermal fibroblasts (qPCR, normalized to ACTB). It is filed as cell-based. The note with it: 48 hours, relative to blank control (1.0). As to the method: The normal human dermal fibroblasts (NHDF) (Biocell, Xi'an, China, Lot: Fb20081902) were incubated in medium together with or without actives for 48 hours. After incubation, the total RNA for each NHDF was extracted using RNAex Pro reagent (Accurate Biotechnology, Cat: AG21102) according to manufacturer's protocol.
The extracted RNA was quantified using Nanodrop spectrometer (Thermo Fisher Scientific, Waltham, MA, US) and reverse transcribed to generate the template cDNA using the Evo M-MLV RT Premix for qPCR (Accurate Biotechnology, Cat: AG11706) according to manufacturer's protocol. Gene expression of COL1A1 gene was analyzed by polymerase chain reaction (PCR) using SYBR® Green Premix Pro Taq HS qPCR Kit (Accurate Biotechnology, AG11701). The actin beta (ACTB) gene was selected as the housekeeping gene and all data on relative expression of the target genes was normalized to ACTB gene. The fold changes in expression were calculated relative to the blank control (medium having no active).
Background: In qPCR the cycle at which signal appears reflects the starting amount.

As to `CCC(=O)OC/C=C(C)/C=C/C=C(C)/C=C/C1=C(C)CCCC1(C)C` [RP, Retinyl propionate], the “Fold change of COL1A1 expression” value (1 μM of RP (group B)) is 1.4 fold change and the “Fold change of COL1A1 expression” value (10 μM of RP (group E)) stood at 1.5 fold change.

As to Lysine carboxymethyl cysteinate [LCC], the “Fold change of COL1A1 expression” value (5 μM of LCC (group D)) worked out at 1.4 fold change, the “Fold change of COL1A1 expression” value (10 μM of LCC (group G)) amounted to 1.5 fold change and the “Fold change of COL1A1 expression” value (50 μM of LCC (group A)) is listed as 1.3 fold change.
